Key:
[1] = system: peripheral blood mononuclear cells; assay: gp120-induced calcium flux in peripheral blood mononuclear cells; assay type: cell-based, human
Experimental: Normal human peripheral blood mononuclear cells were isolated by Ficoll gradient centrifugation, and loaded with the calcium sensitive dye Fluo-4. HIV gp120IIIB induced strong calcium fluxes in the range of 7 nM to 50 pM, and there was a weaker signal at 5 pM.
Experiments corresponding to those with HT-29 cells were done with peripheral blood mononuclear cells. These were isolated from the blood of a healthy, HIV-uninfected person by a Ficoll-Hypaque techique (Histopaque, Sigma), then loaded with Fluo-4 by a technique nearly identical to that used for HT-29 cells, except that Hank's buffer was used rather than Locke's, and the cells were centrifuged (2,000 g for 10 minutes) just before calcium flux measurements to improve adherence. Gp120-induced calcium fluxes were documented with as little as 5 pM gp120IIIB.

[2] = system: microtubules in HT-29 cells; assay: Microtubule staining (acetylated tubulin) in HT-29 cells; assay type: cell-based, human; settings: one hour after gp120 treatment
Experimental: To examine the microtubules, HT-29 cells were treated with 10 nM gp120CM235 or 50 pM gp120IIIB, then fixed one hour later in 4 g/100 ml paraformaldehyde PBS, then stained with mouse anti acetylated tubulin (5 μg/ml, Sigma) by a method similar to that given above. Some cells were pretreated with 50 μg/ml antiBob37 overnight, 1 μg/ml pertussis toxin overnight, or 4.6 μg/ml U73122 for one hour before the gp120 was added. Untreated cells were also stained.
Similarly treated undifferentiated HT-29 cells (except that Fluo-4 was not added) were fixed in paraformaldehyde phosphate buffered saline one hour after gp120 treatment.

[3] = target: T1, CXCR6/Bonzo (Homo sapiens, UniProt O00574); assay: gp120-induced calcium flux, Ghost (3) cells transfected with CXCR6/Bonzo; assay type: cell-based; set-up: key: — = no calcium flux seen at any dilution tested; settings: Ghost (3) CXCR6/Bonzo cells
T1 construct: host or cells: Ghost (3) cells (human osteosarcoma, CD4+)
Excerpt: Human osteosarcoma cell lines were transfected to express CD4, one or another of the HIV coreceptors, and a Green Fluorescent Protein reporter for active HIV infection, for the purpose of testing which of the known coreceptors was used to induce HIV infection by a given HIV strain (Morner A. J Virol 73:2343-9, 1999 and Deng K Nature 388:296-300, 1997). These cells were obtained from the AIDS Research and Reference Reagent Program, courtesy of Dr. Vineet KewalRamani and Dr. Dan Littman. These cells were grown in DMEM with 10% bovine calf serum supplemented with 0.5 mg/ml G418, 0.1 mg/ml hygromycin, and 1 microgram/ml puromycin, and were used at low passage number (less than 10). We have discovered that these cell lines are also activated by gp120 of certain viral strains, inducing a calcium flux in these cells.
Within 4 days of plating, coreceptor-transfected Ghost (3) cells (as well as the parent cell line not transfected to express any HIV coreceptors as a control) were put in Locke's medium, then treated with Fluo-4 (5 micrograms/ml for 30 minutes at 37° C.). […] The results are given in the following table, expressed as the minimal concentration of gp120 resulting in a significant calcium flux. […]

[4] = system: HT-29 cells; assay: Calcium signaling in HT-29 cells (Fluo 4, confocal microscope); assay type: cell-based, human
Experimental: HT-29 cells (from ATCC) were grown in DMEM-F12 with 10% bovine calf serum, and were used 24-48 hours after plating. The Ghost (3) cells were obtained from the AIDS Research and Reference Reagent Program, and were grown DMEM with 10% bovine calf serum supplemented with 500 μg/ml G418, 100 μg/ml hygromycin, and 1 μg/ml puromycin.^27 These cells were used 24 to 96 hours after plating.
Calcium studies were done on HT-29 cells and Ghost (3) cells loaded with Fluo 4. The cells were placed in Locke's buffer containing 5 μg/ml Fluo 4 AM ester (Molecular Probes) for 20 to 30 minutes, then in Locke's buffer for an additional 30 minutes before testing. Various concentrations of gp120IIIB (X4 trophic), gp120CM235 (R5 trophic), gp120mN (X4 trophic), gp12093TH975 (nonsyncytium-inducing primary isolate from an asymptomatic subject, trophism undetermined but likely R5), and gp120SF2 (X4R5 trophic), ranging from 10 nM to less than 1 pM, were added in Locke's buffer.^6 The gp120 proteins were obtained from the AIDS Research Reagent Referral Program. Some HT-29 cells were given one of the following pretreatments: 50 μg/ml anti-Bob37 overnight, 1 μg/ml pertussis toxin overnight, or 4.6 μg/ml U73122 for one hour. With the HT-29 cells only, similar tests were also performed with SDF-1, MIP-1α, MIP-1β, and RANTES rather than gp120. The cells were visualized every 4 seconds in a confocal microscope, using 488 nm argon laser excitation and detection filters appropriate for fluorescein-like dyes.
For the first two or three days after plating, gp120 induces an immediate (within 4 seconds) calcium flux in undifferentiated HT-29 cells. The cells had previously been loaded with Fluo-4 AM ester (Molecular Probes, Eugene Oreg.) 5 micrograms/ml in the presence of Pleuronic F-127 0.02% in Locke's buffer for 30 minutes, then incubated at room temperature for an additional 30 minutes. Gp120IIIB was added while the cells were on an inverted confocal microscope using a 488 nm argon laser, with detection filters suitable for fluorescein-like dyes. […]

Substance	cells substantially brighter after treatment (increase in intracellular calcium) ([1]; 50 picomolar, 4 seconds after treatment, Fluo-4)	lowest gp120IIIB concentration giving calcium flux ([1]; freshly isolated cells)	effect on acetylated tubulin-staining microtubules [2]	minimal concentration of gp120 resulting in a significant calcium flux [3]	calcium signaling in HT-29 cells, in words [4]	minimal concentration causing calcium signaling ([4]; undifferentiated HT-29 cells, serial dilution)
gp120IIIB: HIV-1 envelope surface protein gp120 of strain IIIB (X4 trophic), from the AIDS Research Reagent Referral Program	Approximately 30%	5 pM	marked loss of microtubules	—	induced an immediate calcium signal	1 pM
gp120SF2: gp120 of HIV strain SF2 (X4R5 trophic)				—		

Source: US20050042747A1, “Hivgp120-induced bob/gpr15 activation” (priority 2001, published 2005)
